Like-named read-outs stand apart in the source and are kept apart here.
Experiments:
[1] = test system: male SD rats with 7/8 of their kidney arteries ligated; assay: renal osteodystrophy model: rats with 7/8 of kidney arteries ligated, oral administration for 4 months; femur mineral content by single photon absorptiometry and bone histology; assay type: in vivo; conditions: sham-operated control 0.284± 0.023, ligation-operated control 0.259± 0.017
Source text: In view of these circumstances, the present inventors have made extensive investigations to develop novel rat models wherein renal insufficiency induces abnormal bone quality and low bone mass similar to clinical renal osteodystrophy. As a result, the present inventors have succeeded in obtaining an animal model with such diseases. Thus, after 7/8 of kidney arteries were ligated, animals endurable even for a long breeding term with a mild renal insufficiency were selected and carefully bred for 6 months to establish an animal model with renal osteodystrophy with accompanying abnormal bone quality and low bone mass.
After male SD rats with 7/8 of their kidney arteries ligated at 11 weeks old are bred for 8 weeks, 24R, 25-(OH)₂-D₃ and 24, 25-(OH)₂-D₃ (a racemate of 24R and 24S isomers) are administered orally to the rat for 4 months, respectively.
A solution of sesame oil (the Pharmacopoeia of Japan) containing 0.5 % ethanol is utilized as the solvent. The test is conducted by using 5 groups each of which consists of 6 to 10 rats as follows: • I. sham-operated control group (normal control group, solvent administration) n=8 • II. solvent administration control group n=6 • III. 24R, 25-(OH)₂-D₃ 0.1 µg/kg n=6 • IV. 24R, 25-(OH)₂-D₃ 5.0 µg/kg n=10 • V. 24, 25-(OH)₂-D₃ 5.0 µg/kg n=10
After administration, blood is anesthetically collected and applied to a biochemical serum analysis. After femur is resected, mineral content of femur is measured by means with equipment capable of measuring bone mass (single photon absorptiometry; SPA). Further, the bone tissue sample is stained by Villaneuva's bone staining after slicing, followed by observation under a microscope.

[2] = acute toxicity, oral administration in sesame oil, death rates for 2 weeks; conditions: mouse, in vivo, sesame oil containing 0.5 % ethanol, read-out: LD₅₀ (lethal dose, 50% mortality)
Protocol: The active compound of the present invention is tested for acute toxicity and the resultant data is shown as follows:
The active compound of the present invention, 24R, 25-(OH)₂-D₃ is admixed with a sesame oil (containing 0.5 % ethanol) and the mixture is orally administered to 4 groups of female and male ICR mice (each group has 5 mice) (body weight: male 29 to 33 g, female 22 to 29 g). Two weeks later, toxic symptom is observed.

Compound | bone mass (mineral content of femur, SPA) ([1]; 5.0 µg/kg orally for 4 months) | bone mass (mineral content of femur, SPA) ([1]; 0.1 µg/kg orally for 4 months) | LD50 at 336 h ([2]; female ICR mice) | LD50 at 336 h ([2]; male ICR mice)
C=C1CC[C@H](O)C/C1=C/C=C1\CCC[C@]2(C)[C@@H]([C@H](C)CCC(O)C(C)(C)O)CC[C@@H]12 (some centres unmarked) [24, 25-(OH)₂-D₃, 24, 25-dihydroxycholecalciferol] | 0.282± 0.025 g/cm² |  |  | 
C=C1CC[C@H](O)C/C1=C/C=C1\CCC[C@]2(C)[C@@H]([C@H](C)CC[C@@H](O)C(C)(C)O)CC[C@@H]12 [24R, 25-(OH)₂-D₃, 24R, 25-dihydroxycholecalciferol] | 0.292 ± 0.019 g/cm² | 0.291± 0.032 g/cm² | 253 mg/kg | 215 mg/kg

From patent EP0629405A1, “Agent for inhibiting a decrease in bone mass in renal osteodystrophy” (KUREHA CHEMICAL INDUSTRY CO., LTD., priority 1993, dated 1994)
